Measurements published in US20230348376A1 (TEIJIN PHARMA LIMITED, priority 2020, published 2023).

target: T1, human VDR (Homo sapiens, UniProt P11473); assay: Evaluation of VDR transcription activity in human osteoblasts (HOS cells), luciferase reporter; conditions: Activity (EC50, VDR transcription activity), HOS cells transfected with human VDR, human RXRα and DR3 luciferase reporter; 21 hours
T1 sequence (P11473 1-427): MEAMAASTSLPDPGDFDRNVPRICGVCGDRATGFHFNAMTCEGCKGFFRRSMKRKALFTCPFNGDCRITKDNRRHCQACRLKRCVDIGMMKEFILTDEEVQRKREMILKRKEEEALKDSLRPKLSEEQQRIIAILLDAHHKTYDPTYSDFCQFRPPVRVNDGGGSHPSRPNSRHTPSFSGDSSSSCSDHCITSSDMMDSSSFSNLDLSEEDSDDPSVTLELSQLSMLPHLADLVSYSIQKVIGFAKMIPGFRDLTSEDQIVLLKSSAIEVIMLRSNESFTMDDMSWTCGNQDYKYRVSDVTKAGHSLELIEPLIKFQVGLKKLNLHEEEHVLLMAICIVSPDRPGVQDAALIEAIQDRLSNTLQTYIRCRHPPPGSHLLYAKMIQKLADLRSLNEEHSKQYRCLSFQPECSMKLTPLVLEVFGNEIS
T1 sequence (P19793 1-462 partner): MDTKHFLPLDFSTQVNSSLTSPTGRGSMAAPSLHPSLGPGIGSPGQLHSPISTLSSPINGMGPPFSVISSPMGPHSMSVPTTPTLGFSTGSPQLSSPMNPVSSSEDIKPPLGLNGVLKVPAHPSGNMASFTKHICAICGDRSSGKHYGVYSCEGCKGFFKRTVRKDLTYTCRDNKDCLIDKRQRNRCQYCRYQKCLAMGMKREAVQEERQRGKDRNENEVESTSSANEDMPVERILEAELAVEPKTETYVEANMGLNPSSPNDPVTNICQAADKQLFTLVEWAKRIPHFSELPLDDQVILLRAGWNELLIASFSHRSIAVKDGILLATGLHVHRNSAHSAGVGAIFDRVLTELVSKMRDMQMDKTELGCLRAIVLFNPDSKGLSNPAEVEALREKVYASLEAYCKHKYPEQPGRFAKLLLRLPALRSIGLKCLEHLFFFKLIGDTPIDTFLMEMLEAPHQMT

EC50 [µM] | Structure (SMILES)
0.001 to 0.01 | C=C1[C@H](O)CC(=C/C=C2\CCC[C@]3(C)[C@@H]([C@H](C)CCN4C[C@@H](C)OC[C@H]4C)CC[C@@H]23)C[C@H]1O [Compound D039, (1R,3R)-5-(2-((1R,3aS,7aR,E)-1-((R)-4-((2R,5R)-2,5-dimethylmorpholino)butan-2-yl)-7a-methyloctahydro-4H-inden-4-ylidene)ethylidene)-2-methylenecyclohexane-1,3-diol]
0.01 to 0.1 | C=C1/C(=C\C=C2/CCC[C@]3(C)[C@@H]([C@H](C)CN4CCO[C@@H](C(F)F)C4)CC[C@@H]23)C[C@@H](O)C[C@@H]1O [Compound D006, (1R,3S,Z)-5-(2-((1R,3aS,7aR,E)-1-((S)-1-((R)-2-(difluoromethyl)morpholino)propan-2-yl)-7a-methyloctahydro-4H-inden-4-ylidene)ethylidene)-4-methylenecyclohexane-1,3-diol]
0.01 to 0.1 | C=C1/C(=C\C=C2/CCC[C@]3(C)[C@@H]([C@H](C)CCN4CCOC[C@H]4C)CC[C@@H]23)C[C@@H](O)CC1O (stereo in doubt) [Compound D046, (1R,3R,Z)-5-(2-((1R,3aS,7aR,E)-7a-methyl-1-((R)-4-((R)-3-methylmorpholino)butan-2-yl)octahydro-4H-inden-4-ylidene)ethylidene)-4-methylenecyclohexane-1,3-diol]
0.01 to 0.1 | C=C1/C(=C\C=C2/CCC[C@]3(C)[C@@H]([C@H](C)CN4CCCC(O)(C(F)F)C4)CC[C@@H]23)C[C@@H](O)C[C@@H]1O (single isomer, unassigned) [Compound C034b]
0.001 to 0.01 | C=C1[C@H](O)CC(=C/C=C2\CCC[C@]3(C)[C@@H]([C@@H](C)CN4CCC(C(C)(F)F)CC4)CC[C@@H]23)C[C@H]1O [Compound C057, (1R,3R)-5-(2-((1R,3aS,7aR,E)-1-((R)-1-(4-(1,1-difluoroethyl)piperidin-1-yl)propan-2-yl)-7a-methyloctahydro-4H-inden-4-ylidene)ethylidene)-2-methylenecyclohexane-1,3-diol]
0.01 to 0.1 | C=C1[C@H](O)CC(=C/C=C2\CCC[C@]3(C)[C@@H]([C@H](C)CN4CCC[C@@](C)(O)C4)CC[C@@H]23)C[C@H]1O [Compound C040, (1R,3R)-5-(2-((1R,3aS,7aR,E)-1-((S)-1-((R)-3-hydroxy-3-methylpiperidin-1-yl)propan-2-yl)-7a-methyloctahydro-4H-inden-4-ylidene)ethylidene)-2-methylenecyclohexane-1,3-diol]
0.01 to 0.1 | C=C1[C@H](O)CC(=C/C=C2\CCC[C@]3(C)[C@@H]([C@H](C)CN4CCOC[C@@H]4C)CC[C@@H]23)C[C@H]1O [Compound D015, (1R,3R)-5-(2-((1R,3aS,7aR,E)-7a-methyl-1-((S)-1-((S)-3-methylmorpholino)propan-2-yl)octahydro-4H-inden-4-ylidene)ethylidene)-2-methylenecyclohexane-1,3-diol]
0.01 to 0.1 | C=C1/C(=C\C=C2/CCC[C@]3(C)[C@@H]([C@H](C)CN4CCC[C@H](C(F)F)C4)CC[C@@H]23)C[C@@H](O)C[C@@H]1O [Compound C048, (1R,3S,Z)-5-(2-((1R,3aS,7aR,E)-1-((S)-1-((S)-3-(difluoromethyl)piperidin-1-yl)propan-2-yl)-7a-methyloctahydro-4H-inden-4-ylidene)ethylidene)-4-methylenecyclohexane-1,3-diol]
0.1 to 1 | CCC1(O)CCCN(C[C@@H](C)[C@H]2CC[C@H]3/C(=C/C=C4C[C@@H](O)C[C@H](O)C4)CCC[C@]23C)C1 (single isomer, unassigned) [Compound C044b]

The next lines start with the compound.

Structure (SMILES) | EC50 [µM]
C=C1[C@H](O)CC(=C/C=C2\CCC[C@]3(C)[C@@H]([C@H](C)CN4CC[C@@H](OCC(F)F)C4)CC[C@@H]23)C[C@H]1O [Compound B056, (1R,3R)-5-(2-((1R,3aS,7aR,E)-1-((S)-1-((R)-3-(2,2-difluoroethoxy)pyrrolidin-1-yl)propan-2-yl)-7a-methyloctahydro-4H-inden-4-ylidene)ethylidene)-2-methylenecyclohexane-1,3-diol] | 0.01 to 0.1
C=C1/C(=C\C=C2/CCC[C@]3(C)[C@@H]([C@H](C)CN4CC[C@H](CC(F)F)C4)CC[C@@H]23)C[C@@H](O)[C@H](C)[C@@H]1O [Compound B038, (1R,2S,3S,Z)-5-(2-((1R,3aS,7aR,E)-1-((S)-1-((R)-3-(2,2-difluoroethyl)pyrrolidin-1-yl)propan-2-yl)-7a-methyloctahydro-4H-inden-4-ylidene)ethylidene)-2-methyl-4-methylenecyclohexane-1,3-diol] | 0.01 to 0.1
C[C@@H](CN1CC[C@@H](CC(F)F)C1)[C@H]1CC[C@H]2/C(=C/C=C3CC(O)C[C@H](O)C3)CCC[C@]12C (stereo in doubt) [Compound B103, (1R,3 S)-5-(2-((1R,3aS,7aR,E)-1-((R)-1-((S)-3-(2,2-difluoroethyl)pyrrolidin-1-yl)propan-2-yl)-7a-methyloctahydro-4H-inden-4-ylidene)ethylidene)cyclohexane-1,3-diol] | 0.01 to 0.1
C[C@H](CCCN1CC[C@@H](F)C1)[C@H]1CC[C@H]2/C(=C/C=C3C[C@@H](O)C[C@H](O)C3)CCC[C@]12C [Compound B017, (1R,3R)-5-(2-((1R,3aS,7aR,E)-1-((R)-5-((R)-3-fluoropyrrolidin-1-yl)pentan-2-yl)-7a-methyloctahydro-4H-inden-4-ylidene)ethylidene)cyclohexane-1,3-diol] | 0.01 to 0.1
C=C1C(O)CC(=C/C=C2\CCC[C@]3(C)[C@@H]([C@H](C)CN4CC[C@@](C)(O)C4)CC[C@@H]23)C[C@H]1O (stereo in doubt) [Compound B076, (1R,3S)-5-(2-((1R,3aS,7aR,E)-1-((S)-1-((R)-3-hydroxy-3-methylpyrrolidin-1-yl)propan-2-yl)-7a-methyloctahydro-4H-inden-4-ylidene)ethylidene)-2-methylenecyclohexane-1,3-diol] | 0.01 to 0.1
C=C1/C(=C\C=C2/CCC[C@]3(C)[C@@H]([C@H](C)CN4CC[C@@H](CCC(F)F)C4)CC[C@@H]23)C[C@@H](O)C[C@@H]1O [Compound B060, (1R,3S,Z)-5-(2-((1R,3aS,7aR,E)-1-((S)-1-((R)-3-(3,3-difluoropropyl)pyrrolidin-1-yl)propan-2-yl)-7a-methyloctahydro-4H-inden-4-ylidene)ethylidene)-4-methylenecyclohexane-1,3-diol] | 0.01 to 0.1
C=C1[C@H](O)CC(=C/C=C2\CCC[C@]3(C)[C@@H]([C@H](C)CN4CC[C@@H](C)C4)CC[C@@H]23)C[C@H]1O [Compound B003, (1R,3R)-5-(2-((1R,3aS,7aR,E)-7a-methyl-1-((S)-1-((R)-3-methylpyrrolidin-1-yl)propan-2-yl)octahydro-4H-inden-4-ylidene)ethylidene)-2-methylenecyclohexane-1,3-diol] | 0.001 to 0.01
C=C1/C(=C\C=C2/CCC[C@]3(C)[C@@H]([C@@H](C)CN4CC[C@H](C)C4)CC[C@@H]23)C[C@@H](O)C[C@@H]1O [Compound B010, (1R,3S,Z)-5-(2-((1R,3aS,7aR,E)-7a-methyl-1-((R)-1-((S)-3-methylpyrrolidin-1-yl)propan-2-yl)octahydro-4H-inden-4-ylidene)ethylidene)-4-methylenecyclohexane-1,3-diol] | 0.01 to 0.1
C=C1/C(=C\C=C2/CCC[C@]3(C)[C@@H]([C@H](C)CN4CC[C@@H](C(C)(F)F)C4)CC[C@@H]23)C[C@@H](O)C[C@@H]1O [Compound B032, (1R,3S,Z)-5-(2-((1R,3aS,7aR,E)-1-((S)-1-((R)-3-(1,1-difluoroethyl)pyrrolidin-1-yl)propan-2-yl)-7a-methyloctahydro-4H-inden-4-ylidene)ethylidene)-4-methylenecyclohexane-1,3-diol] | 0.001 to 0.01
C[C@H](CN1CC[C@@](C)(O)C1)[C@H]1CC[C@H]2/C(=C/C=C3CC(O)C[C@H](O)C3)CCC[C@]12C (stereo in doubt) [Compound B075, (1R,3S)-5-(2-((1R,3aS,7aR,E)-1-((S)-1-((R)-3-hydroxy-3-methylpyrrolidin-1-yl)propan-2-yl)-7a-methyloctahydro-4H-inden-4-ylidene)ethylidene)cyclohexane-1,3-diol] | 0.1 to 1
C=C1[C@H](O)CC(=C/C=C2\CCC[C@]3(C)[C@@H]([C@H](C)CN4CC(OCC(F)F)C4)CC[C@@H]23)C[C@H]1O [Compound A016, (1R,3R)-5-(2-((1R,3aS,7aR,E)-1-((S)-1-(3-(2,2-difluoroethoxy)azetidin-1-yl)propan-2-yl)-7a-methyloctahydro-4H-inden-4-ylidene)ethylidene)-2-methylenecyclohexane-1,3-diol] | 0.01 to 0.1
